{
  "source": "patent US7572888B2",
  "about": "“Methods of assaying receptor activity and constructs useful in such methods” (Duke University, priority 1997, dated 2009)",
  "key": {"[1]": {"biological_target": "T1, μORs (Mus musculus, UniProt P42866)", "T1 construct": "from tissue; host or cells: crude membranes of mouse hypothalamus, brain stem and periaqueductal gray", "T1 sequence (P42866 whole entry)": "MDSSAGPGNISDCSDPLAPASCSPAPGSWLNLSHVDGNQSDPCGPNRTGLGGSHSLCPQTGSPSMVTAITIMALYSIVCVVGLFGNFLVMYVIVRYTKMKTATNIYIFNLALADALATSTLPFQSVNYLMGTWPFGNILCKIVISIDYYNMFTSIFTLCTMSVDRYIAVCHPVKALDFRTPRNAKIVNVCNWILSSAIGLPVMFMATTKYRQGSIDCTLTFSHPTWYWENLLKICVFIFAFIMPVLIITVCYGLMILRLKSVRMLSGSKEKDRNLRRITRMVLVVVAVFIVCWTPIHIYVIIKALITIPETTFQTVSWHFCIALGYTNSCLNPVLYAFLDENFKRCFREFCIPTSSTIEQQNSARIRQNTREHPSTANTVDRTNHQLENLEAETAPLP", "experiment": "Agonist-stimulated [35S]GTPγS binding to periaqueductal gray membranes", "format": "biochemical", "conditions": "PAG membranes, 50-10,000 nM, 2 hour, 30° C."}, "[2]": {"test_system": "dopamine receptor", "experiment": "Locomotor responses to dopamine receptor stimulation", "format": "in vivo, mouse", "conditions": "data not shown", "description": "For example, locomotor responses to dopamine receptor stimulation by cocaine and apornorphine were not enhanced (data not shown). […] Other regulatory elements, such as GRKs or βarrestin-1, could compensate for the lack of βarrestin-2, or the receptors could vary in their requirement for βarrestin interaction for their regulation."}, "[3]": {"experiment": "Rectal body temperature after morphine", "format": "in vivo, mouse", "conditions": "after morphine treatment"}, "[4]": {"test_system": "μOR", "conditions": "cited from earlier work"}, "[5]": {"biological_target": "μ opioid receptor (μOR) (Mus musculus, UniProt P42866)", "sequence (P42866 whole entry)": "as above", "conditions": "given before morphine, wild type and βarr2-KO mice (data not shown)", "experimental": "The “response” was defined by the animal either licking the fore- or hind-paws or flicking the hind-paws. […] To avoid tissue damage the animals were not exposed to the plate for more than 30 seconds. […] WT (n=6), heterozygotes (+/−, n=5) and KO (n=9) mice were analyzed together in the same experiment.\nThe degree of antinociception was determined by measuring latency of hot plate (56° C.) responses (FIG. 2). […] After 10 min., antinociception was assessed once more. […] Means±S.E.M. are shown.\nAfter 30 minutes or 2 hours, wild-type mice were killed and blood was collected in vials containing sodium fluoride and potassium-oxalate."}},
  "data": [
    {"molecule": "C[C@@H](NC(=O)[C@@H](N)Cc1ccc(O)cc1)C(=O)NCC(=O)N(C)[C@@H](Cc1ccccc1)C(=O)NCCO", "note": "[DAMGO, [D-Ala^2, MePhe^4, Gly^5-ol]enkephalin]", "values": [
      {"measurement": "[35S]GTPγS binding in βarr2-KO membranes compared to wild-type", "setting": "[1]", "value": "stimulated more [^35S]GTPγS binding"}
    ]},
    {"molecule": "CN1CCc2cccc3c2[C@H]1Cc1ccc(O)c(O)c1-3", "note": "[apornorphine]", "values": [
      {"measurement": "locomotor responses in βarr2-KO vs wild type", "setting": "[2]", "value": "not enhanced"}
    ]},
    {"molecule": "CN1CC[C@]23c4c5ccc(O)c4O[C@H]2[C@@H](O)C=C[C@H]3[C@H]1C5", "note": "[morphine]", "values": [
      {"measurement": "change in body temperature, βarr2-KO vs wild-type", "setting": "[3]", "value": "greater drop in body temperature"},
      {"measurement": "internalization of the μOR", "setting": "[4]; transfected cells, rat μOR or mouse MOR1", "value": "fails to induce the internalization of the μOR"},
      {"measurement": "translocation of GFP-tagged βarrestin-2 to μOR", "setting": "[4]; μOR overexpressed in cell culture, exposure to morphine", "value": "fails to translocate"}
    ]},
    {"molecule": "Oc1ccc2c3c1O[C@H]1c4[nH]c5ccccc5c4C[C@@]4(O)[C@@H](C2)N(CC2CC2)CC[C@]314", "note": "[naltrindole]", "values": [
      {"measurement": "inhibition of morphine analgesia", "setting": "[5]", "value": "did not inhibit analgesia"}
    ]},
    {"molecule": "Oc1ccc2c3c1O[C@H]1c4[nH]c5c(c4C[C@@]4(O)[C@@H](C2)N(CC2CC2)CC[C@]314)C[C@@]1(O)[C@H]2Cc3ccc(O)c4c3[C@@]1(CCN2CC1CC1)[C@H]5O4", "note": "[nor-binaltorphimine]", "values": [
      {"measurement": "inhibition of morphine analgesia", "setting": "[5]", "value": "did not inhibit analgesia"}
    ]}
  ]
}
